The source made the active and inactive calls. No cut-off for these calls is given here.
Tests used:
K562 [1] = experiment: Cytotoxicity against human K562 cells by MTT assay; type: functional, cell-based
HepG2 [2] = experiment: Cytotoxicity against human HepG2 cells by MTT assay; type: functional, cell-based
HT-29 = experiment: Cytotoxicity against human HT-29 cells by MTT assay; type: functional, cell-based
MDA-MB-231 = experiment: Cytotoxicity against human MDA-MB-231 cells; type: functional, cell-based
[3] = Cytotoxicity against HEK293T cells; type: toxicity, cell-based, HEK-293T; conditions: human
[4] = Cytotoxicity against HUVEC cells; type: toxicity, cell-based; conditions: human
HCT-116 = experiment: Cytotoxicity against human HCT-116 cells; type: functional, cell-based
K562 [5] = experiment: Induction of apoptosis in human K562 cells at 2 uM after 12 hrs by annexin V-FITC and PI staining based method (reference value: 8.4%); type: functional
K562 [6] = experiment: Induction of apoptosis in human K562 cells at 20 uM after 12 hrs by annexin V-FITC and PI staining based method (reference value: 8.4%); type: functional
K562 [7] = experiment: Induction of apoptosis in human K562 cells at 2 uM after 24 hrs by annexin V-FITC and PI staining based method (reference value: 9%); type: functional
K562 [8] = experiment: Induction of apoptosis in human K562 cells at 20 uM after 24 hrs by annexin V-FITC and PI staining based method (reference value: 9%); type: functional
K562 [9] = experiment: Induction of apoptosis in human K562 cells at 2 uM after 48 hrs by annexin V-FITC and PI staining based method (reference value: 9.8%); type: functional
K562 [10] = experiment: Induction of apoptosis in human K562 cells at 20 uM after 48 hrs by annexin V-FITC and PI staining based method (reference value: 9.8%); type: functional
K562 [11] = experiment: Induction of apoptosis in human K562 cells assessed as appearance of apoptotic bodies at 2 to 20 uM by light microscopic analysis; type: functional, cell-based; conditions: dose 2-20 µM, TDE = time-dependent effect
K562 [12] = experiment: Induction of apoptosis in human K562 cells assessed as inhibition of cell growth at 2 to 20 uM; type: functional, cell-based; conditions: dose 2-20 µM, time 12-72 hrs, TDE = time-dependent effect
K562 [13] = experiment: Induction of apoptosis in human K562 cells assessed as inhibition of cell growth after 12 to 72 hrs; type: functional, cell-based; conditions: dose 0.2-20 µM, time 12-72 hrs
K562 [14] = experiment: Induction of cell cycle arrest in human K562 cells assessed as accumulation of cells at G1 phase at 2 uM incubated for 6 hrs by flow cytometry (reference value: 57.73%); type: functional
K562 [15] = experiment: Induction of cell cycle arrest in human K562 cells assessed as accumulation of cells at G1 phase at 20 uM incubated for 6 hrs by flow cytometry (reference value: 57.73%); type: functional
K562 [16] = experiment: Induction of cell cycle arrest in human K562 cells assessed as accumulation of cells at G2 phase at 2 uM incubated for 6 hrs by flow cytometry (reference value: 13.40%); type: functional
K562 [17] = experiment: Induction of cell cycle arrest in human K562 cells assessed as accumulation of cells at G2 phase at 20 uM incubated for 6 hrs by flow cytometry (reference value: 13.40%); type: functional
K562 [18] = experiment: Induction of cell cycle arrest in human K562 cells assessed as accumulation of cells at S phase at 2 uM incubated for 6 hrs by flow cytometry (reference value: 28.87%); type: functional
K562 [19] = experiment: Induction of cell cycle arrest in human K562 cells assessed as accumulation of cells at S phase at 20 uM incubated for 6 hrs by flow cytometry (reference value: 28.87%); type: functional
K562 [20] = experiment: Induction of cell cycle arrest in human K562 cells assessed as accumulation of cells at G1 phase at 2 uM incubated for 12 hrs by flow cytometry (reference value: 71.17%); type: functional
K562 [21] = experiment: Induction of cell cycle arrest in human K562 cells assessed as accumulation of cells at G1 phase at 20 uM incubated for 12 hrs by flow cytometry (reference value: 71.17%); type: functional
K562 [22] = experiment: Induction of cell cycle arrest in human K562 cells assessed as accumulation of cells at G2 phase at 2 uM incubated for 12 hrs by flow cytometry (reference value: 11.93%); type: functional
K562 [23] = experiment: Induction of cell cycle arrest in human K562 cells assessed as accumulation of cells at G2 phase at 20 uM incubated for 12 hrs by flow cytometry (reference value: 11.93%); type: functional
K562 [24] = experiment: Induction of cell cycle arrest in human K562 cells assessed as accumulation of cells at S phase at 2 uM incubated for 12 hrs by flow cytometry (reference value: 16.9%); type: functional
K562 [25] = experiment: Induction of cell cycle arrest in human K562 cells assessed as accumulation of cells at S phase at 20 uM incubated for 12 hrs by flow cytometry (reference value: 16.9%); type: functional
K562 [26] = experiment: Induction of cell cycle arrest in human K562 cells assessed as accumulation of cells at G1 phase at 2 uM incubated for 24 hrs by flow cytometry (reference value: 82.22%); type: functional
K562 [27] = experiment: Induction of cell cycle arrest in human K562 cells assessed as accumulation of cells at G1 phase at 20 uM incubated for 24 hrs by flow cytometry (reference value: 82.22%); type: functional
K562 [28] = experiment: Induction of cell cycle arrest in human K562 cells assessed as accumulation of cells at G2 phase at 2 uM incubated for 24 hrs by flow cytometry (reference value: 0.27%); type: functional
K562 [29] = experiment: Induction of cell cycle arrest in human K562 cells assessed as accumulation of cells at G2 phase at 20 uM incubated for 24 hrs by flow cytometry (reference value: 0.27%); type: functional
K562 [30] = experiment: Induction of cell cycle arrest in human K562 cells assessed as accumulation of cells at S phase at 2 uM incubated for 24 hrs by flow cytometry (reference value: 17.51%); type: functional
K562 [31] = experiment: Induction of cell cycle arrest in human K562 cells assessed as accumulation of cells at S phase at 20 uM incubated for 24 hrs by flow cytometry (reference value: 17.51%); type: functional
HepG2 [32] = experiment: Inhibition of cell migration human HepG2 cells assessed as migration distance at 0.3 uM incubated for 12 hrs by wound healing assay (reference value: 566.76 micrometer); type: functional
HepG2 [33] = experiment: Inhibition of cell migration human HepG2 cells assessed as migration distance at 1 uM incubated for 12 hrs by wound healing assay (reference value: 566.76 micrometer); type: functional
HepG2 [34] = experiment: Inhibition of cell migration human HepG2 cells assessed as migration distance at 3 uM incubated for 12 hrs by wound healing assay (reference value: 566.76 micrometer); type: functional
HepG2 [35] = experiment: Inhibition of cell migration human HepG2 cells assessed as migration distance at 0.3 uM incubated for 24 hrs by wound healing assay (reference value: 424.41 micrometer); type: functional
HepG2 [36] = experiment: Inhibition of cell migration human HepG2 cells assessed as migration distance at 1 uM incubated for 24 hrs by wound healing assay (reference value: 424.41 micrometer); type: functional
HepG2 [37] = experiment: Inhibition of cell migration human HepG2 cells assessed as migration distance at 3 uM incubated for 24 hrs by wound healing assay (reference value: 424.41 micrometer); type: functional
HepG2 [38] = experiment: Inhibition of cell migration human HepG2 cells assessed as migration distance at 0.3 uM incubated for 36 hrs by wound healing assay (reference value: 243.56 micrometer); type: functional
HepG2 [39] = experiment: Inhibition of cell migration human HepG2 cells assessed as migration distance at 1 uM incubated for 36 hrs by wound healing assay (reference value: 243.56 micrometer); type: functional
HepG2 [40] = experiment: Inhibition of cell migration human HepG2 cells assessed as migration distance at 3 uM incubated for 36 hrs by wound healing assay (reference value: 243.56 micrometer); type: functional
HepG2 [41] = experiment: Inhibition of cell migration human HepG2 cells assessed as migration distance at 0.3 uM incubated for 48 hrs by wound healing assay (reference value: 0 micrometer); type: functional
HepG2 [42] = experiment: Inhibition of cell migration human HepG2 cells assessed as migration distance at 1 uM incubated for 48 hrs by wound healing assay (reference value: 0 micrometer); type: functional
HepG2 [43] = experiment: Inhibition of cell migration human HepG2 cells assessed as migration distance at 3 uM incubated for 48 hrs by wound healing assay (reference value: 0 micrometer); type: functional
HepG2 [44] = experiment: Inhibition of cell migration human HepG2 cells at 0.3 to 3 uM incubated for 48 hrs by Transwell assay; type: functional, cell-based; conditions: dose 0.3-3 µM

## COc1cc(OC)c(-c2ccc(C#N)cc2)cc1C(=O)/C=C/c1ccccc1
K562 [1]
  IC50: > 10 µM
HepG2 [2]
  IC50: > 10 µM
HT-29
  IC50: > 10 µM

## CC[C@@]1(O)C(=O)OCc2c1cc1n(c2=O)Cc2cc3ccccc3nc2-1 [CAMPTOTHECIN]
K562 [1]
  IC50: 0.04 µM
HepG2 [2]
  IC50: 0.02 µM
HT-29
  IC50: 0.07 µM
MDA-MB-231
  IC50: > 100 µM
[3]
  IC50: 0.03 µM
[4]
  IC50: 0.06 µM

## COc1cc(OC)c(-c2ccc(C(F)(F)F)cc2)cc1C(=O)/C=C/c1ccccc1
K562 [1]
  IC50: 8.7 µM
HepG2 [2]
  IC50: > 10 µM
HT-29
  IC50: > 10 µM

## COc1ccc(-c2cc(C(=O)/C=C/c3ccccc3)c(OC)cc2OC)cc1
K562 [1]
  IC50: 7.26 µM
HepG2 [2]
  IC50: > 10 µM
HT-29
  IC50: > 10 µM

## COc1cc(OC)c(-c2ccccc2)cc1C(=O)/C=C/c1ccccc1
K562 [1]
  IC50: 3.83 µM
HepG2 [2]
  IC50: > 10 µM
HT-29
  IC50: 9.17 µM

## COc1cc(OC)c(-c2ccc(F)cc2)cc1C(=O)/C=C/c1ccccc1
K562 [1]
  IC50: 1.97 µM
HepG2 [2]
  IC50: 2.23 µM
HT-29
  IC50: 7.69 µM
HCT-116
  IC50: 5.17 µM
MDA-MB-231
  IC50: 10.7 µM
[3]
  IC50: 5.19 µM
[4]
  IC50: 19.7 µM
K562 [5]
  Activity: 8.1%
K562 [6]
  Activity: 11.9%
K562 [7]
  Activity: 12%
K562 [8]
  Activity: 19.8%
K562 [9]
  Activity: 32%
K562 [10]
  Activity: 62.6%
K562 [11]
  Activity: Tde
K562 [12]
  Activity: Tde
K562 [13]
  Activity: Dose-Dependent Effect
K562 [14]
  Activity: 58.77%
K562 [15]
  Activity: 60.44%
K562 [16]
  Activity: 11.61%
K562 [17]
  Activity: 9.25%
K562 [18]
  Activity: 29.62%
K562 [19]
  Activity: 30.33%
K562 [20]
  Activity: 58.31%
K562 [21]
  Activity: 52.57%
K562 [22]
  Activity: 12.29%
K562 [23]
  Activity: 10.88%
K562 [24]
  Activity: 29.39%
K562 [25]
  Activity: 36.55%
K562 [26]
  Activity: 54.29%
K562 [27]
  Activity: 54.29%
K562 [28]
  Activity: 7.97%
K562 [29]
  Activity: 1.33%
K562 [30]
  Activity: 37.74%
K562 [31]
  Activity: 44.38%
HepG2 [32]
  Activity: 532.4 um
HepG2 [33]
  Activity: 551.11 um
HepG2 [34]
  Activity: 534.71 um
HepG2 [35]
  Activity: 438 um
HepG2 [36]
  Activity: 486.95 um
HepG2 [37]
  Activity: 488.94 um
HepG2 [38]
  Activity: 294.54 um
HepG2 [39]
  Activity: 401.52 um
HepG2 [40]
  Activity: 423.28 um
HepG2 [41]
  Activity: 245.7 um
HepG2 [42]
  Activity: 301.44 um
HepG2 [43]
  Activity: 337.11 um
HepG2 [44]
  inhibition: Active

## COc1cc(OC)c(-c2ccc(-c3ccco3)cc2)cc1C(=O)/C=C/c1ccccc1
K562 [1]
  IC50: 4.69 µM
HepG2 [2]
  IC50: 5.91 µM
HT-29
  IC50: 6.17 µM

## COc1cc(OC)c(-c2ccc(C)cc2)cc1C(=O)/C=C/c1ccccc1
K562 [1]
  IC50: 2.59 µM
HepG2 [2]
  IC50: > 10 µM
HT-29
  IC50: 9.29 µM

## COc1cc(OC)c(-c2ccc(OC(C)=O)cc2)cc1C(=O)/C=C/c1ccccc1
K562 [1]
  IC50: > 10 µM
HepG2 [2]
  IC50: > 10 µM
HT-29
  IC50: > 10 µM
